Test results from patent US7495027B2, “3-aryl-4-hydroxyfuranone compounds and the human and animal health use thereof” (Wyeth, priority 2003, dated 2009).

Experiments:
C. elegans = assay: Efficacy against nematodes (C. elegans motility rating); set-up: key: 0: no effect; 7: reduced movement in 24 h; 8: dead in 24 h; 9: dead in 4 h; conditions: observations at 4 h and 24 h postimmersion
Summary of the method: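 Mixed-stage C. elegans (~50 per well, L1 to adult) in M9 buffer exposed to test compound at 100 ppm, 150 ppm or 200 μM final. Motility of larvae and adults scored under dissecting microscope at 4 h and 24 h.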

[1] = system: Trichostrongylus columbriformis; assay: In vivo efficacy against T. colubriformis in infected gerbils; conditions: gerbils infected with T. colubriformis; single oral dose of 50 mg/kg by gavage; worm counts four days post-treatment; % mortality as compared to negative control
Protocol: In Vivo Evaluation of the Efficacy of Test Compounds Against T. colubriformis
In this evaluation, gerbils are infected with Trichostrongylus columbriformis infective larvae at a concentration of approximately 800 L3/mL. Larvae for gerbil infections are cultured from feces from sheep previously infected with T. colubriformis. One week post infection, test compounds are administered by gavage as a single oral dose of 50 mg/kg of body weight. For each group of 3 gerbils, 10 mg of test compound are dissolved in 2 mL of PEG 400:DMSO (1:2 v/v) and each animal is administered the test solution at a rate of 0.1 mL/10 g of body weight. […] All animals are observed daily for morbidity and mortality. Four days post-treatment, all animals are weighed and necropsied. Worm counts are conducted with the use of stereoscopes and counters.

| Compound | Rating (C. elegans; dose 100 ppm) | Mortality [1] | Rating (C. elegans; dose 150 ppm) |
| --- | --- | --- | --- |
| N#Cc1ccc(-c2ccc(C3=C(O)C(=Cc4ccc(Cl)cc4)OC3=O)cc2)cc1 (mixture of isomers) | 9 | 13.10% | – |
| O=C1OC(=Cc2ccc(-c3ccc(Cl)cc3)cc2)C(O)=C1c1cccc(Cl)c1 (mixture of isomers) | 9 | 37.60% | – |
| N#Cc1cccc(C2=C(O)C(=Cc3ccc(C(F)(F)F)cc3)OC2=O)c1 (mixture of isomers) [R=H; R1=3-CN—C6H4**; R2=4-CF3—C6H4] | 9 | 0.00% | – |
| C=CCOC1=C(c2ccc(Cl)cc2)C(=O)OC1=Cc1ccc(C#N)cc1 (mixture of isomers) | 0 | 0.00% | – |
| N#Cc1cccc(C2=C(O)C(=Cc3ccc(Cl)cc3)OC2=O)c1 (mixture of isomers) [R=H; R1=3-CN—C6H4**; R2=4-Cl—C6H4] | 9 | 0.00% | – |
| N#Cc1ccc(C=C2OC(=O)C(c3ccc(F)cc3)=C2O)cc1 (mixture of isomers) [R=H; R1=4-F—C6H4**; R2=4-CN—C6H4] | 9 | 14.70% | – |
| COc1ccc(C2=C(O)C(=Cc3ccc(-c4ccccc4)cc3)OC2=O)cc1 [R=H; R1=4-OCH3—C6H4; R2=4-biphenyl] | – | 44.90% | 9 |
| O=C1O/C(=C\c2cccc3ccccc23)C(O)=C1c1ccc(Cl)cc1 [R=H; R1=4-Cl—C6H4; R2=1-naphthyl] | – | 0.00% | 9 |
| O=C1O/C(=C\c2cccc3ccccc23)C(O)=C1c1ccc2ccccc2c1 [R=H; R1=2-naphthyl; R2=1-naphthyl] | – | 36.10% | 9 |
| O=C1OC(=Cc2ccccn2)C(O)=C1c1ccc(OC(F)(F)F)cc1 (mixture of isomers) [R=H; R1=4-OCF3—C6H4**; R2=pyridine-2-yl] | 0 | 0.00% | – |
| O=C1O/C(=C\c2ccc(Cl)cc2)C(O)=C1c1cccc(C(F)(F)F)c1 [R=H; R1=3-CF3—C6H4; R2=4-Cl—C6H4] | 9 | 21.60% | – |
| N#Cc1ccc(C2=C(O)C(=Cc3ccc(F)cc3)OC2=O)cc1 (mixture of isomers) [R=H; R1=4-CN—C6H4**; R2=4-F—C6H4] | 9 | 82.10% | – |
| Cc1ccccc1C1=C(O)C(=Cc2ccc(-c3ccccc3C)cc2)OC1=O | – | 21.30% | 8 |
| O=C1OC(=Cc2cccnc2)C(O)=C1c1ccc(OC(F)(F)F)cc1 (mixture of isomers) [R=H; R1=4-OCF3—C6H4**; R2=pyridine-3-yl] | 0 | 0.00% | – |
| O=C1OC(=Cc2cnccc2Br)C(O)=C1c1ccc(OC(F)(F)F)cc1 (mixture of isomers) | 9 | 12.80% | – |
| O=C1OC(=Cc2cnccc2-c2cccs2)C(O)=C1c1ccc(OC(F)(F)F)cc1 (mixture of isomers) | 9 | 12.80% | – |
| O=C1OC(=Cc2ccc(C(F)(F)F)cc2)C(O)=C1c1ccc(-c2ccc(Cl)cc2)cc1 (mixture of isomers) | 9 | 21.30% | – |
| COc1ccc(C=C2OC(=O)C(c3ccc(Cl)cc3)=C2O)cc1 [R=H; R1=4-Cl—C6H4; R2=4-OCH3—C6H4] | – | 7.10% | 0 |
| O=C1OC(=Cc2ccc(Cl)cc2)C(O)=C1c1cccc(Cl)c1 (mixture of isomers) [R=H; R1=3-Cl—C6H4**; R2=4-Cl—C6H4] | 9 | 18.80% | – |
| O=C1OC(=Cc2ncccc2Br)C(O)=C1c1ccc(OC(F)(F)F)cc1 (mixture of isomers) | 0 | 26.90% | – |

| Compound | Rating (C. elegans; dose 100 ppm) | Mortality [1] | Rating (C. elegans; dose 150 ppm) |
| --- | --- | --- | --- |
| O=C1OC(=Cc2ccc(-c3ccc(Cl)cc3)cc2)C(O)=C1c1cccc(C(F)(F)F)c1 (mixture of isomers) | 9 | 31.30% | – |
| O=C1OC(=Cc2ccc(-c3ccc(C(F)(F)F)cc3)cc2)C(O)=C1c1ccc(Cl)cc1 (mixture of isomers) | 9 | 0.00% | – |
| O=C1O/C(=C\c2ccc3ccccc3c2)C(O)=C1c1ccc2ccccc2c1 [R=H; R1=2-naphthyl; R2=2-naphthyl] | – | 13.80% | 9 |
| CC(=O)c1cccc(C2=C(O)C(=Cc3cccc4ccccc34)OC2=O)c1 [R=H; R1=3-COCH3—C6H4; R2=1-naphthyl] | – | 10.70% | 8 |
| N#Cc1ccc(C2=C(O)C(=Cc3cccc(C(F)(F)F)c3)OC2=O)cc1 (mixture of isomers) [R=H; R1=4-CN—C6H4**; R2=3-CF3—C6H4] | 9 | 50.00% | – |
| O=C1O/C(=C\c2ccc(-c3ccccc3)cc2)C(O)=C1c1ccc(Cl)cc1Cl [R=H; R1=2,4-diCl—C6H3; R2=4-biphenyl] | – | 24.50% | 9 |
| N#Cc1ccc(-c2ccc(C=C3OC(=O)C(c4cccc(Cl)c4)=C3O)cc2)cc1 (mixture of isomers) | 9 | 32.00% | – |
| N#Cc1ccc(-c2ccc(C=C3OC(=O)C(c4ccc(C(F)(F)F)cc4)=C3O)cc2)cc1 (mixture of isomers) | 9 | 91.50% | – |
| O=C1OC(=Cc2ccc(-c3ccccc3)cc2)C(O)=C1c1cccc(Cl)c1 [R=H; R1=3-Cl—C6H4; R2=4-biphenyl] | – | 19.40% | 9 |
| N#Cc1ccc(-c2ccc(C=C3OC(=O)C(c4ccc(F)cc4)=C3O)cc2)cc1 (mixture of isomers) | 9 | 31.80% | – |
| O=C1OC(=Cc2ccc(OC(F)(F)F)cc2)C(O)=C1c1ccc(F)cc1 (mixture of isomers) [R=H; R1=4-F—C6H4**; R2=4-OCF3—C6H4] | 9 | 51.60% | – |
| COc1ccc(/C=C2\OC(=O)C(c3cccc(C(F)(F)F)c3)=C2O)cc1 [R=H; R1=3-CF3—C6H4; R2=4-OCH3—C6H4] | – | 3.10% | 9 |
| COC1=C(c2ccc(Cl)cc2)C(=O)OC1=Cc1ccc(C#N)cc1 (mixture of isomers) [R=CH3; R1=4-Cl—C6H4**; R2=4-CN—C6H4] | 0 | 0.00% | – |
| O=C1OC(=Cc2cnccc2-c2ccc(F)cc2)C(O)=C1c1ccc(OC(F)(F)F)cc1 (mixture of isomers) | 9 | 12.80% | – |
| O=C1OC(=Cc2ccc(Cl)cc2)C(O)=C1c1ccc(-c2ccc(Cl)cc2)cc1 (mixture of isomers) | 9 | 0.00% | – |
| N#Cc1ccc(C2=C(O)C(=Cc3ccc(OC(F)F)cc3)OC2=O)cc1 (mixture of isomers) [R=H; R1=4-CN—C6H4**; R2=4-OCHF2—C6H4] | 9 | 48.40% | – |
| O=C1OC(=Cc2cccs2)C(O)=C1c1ccc(OC(F)(F)F)cc1 (mixture of isomers) [R=H; R1=4-OCF3—C6H4**; R2=thiophen-2-yl] | 0 | 0.00% | – |
| N#Cc1cccc(C2=C(O)C(=Cc3ccc(F)cc3)OC2=O)c1 (mixture of isomers) [R=H; R1=3-CN—C6H4**; R2=4-F—C6H4] | 7 | 0.00% | – |
| O=C1O/C(=C\c2ccc(Cl)cc2)C(O)=C1c1ccc(-c2ccccc2)c(F)c1 [R=H; R1=4-(3-F-biphenyl); R2=4-CI-C6H4] | – | 22.00% | – |
| O=C1O/C(=C\c2cccc(Cl)c2)C(O)=C1c1ccc(Cl)cc1 [R=H; R1=4-Cl—C6H4; R2=3-CI-C6H4] | – | 25.40% | – |
